Source: publication PMC5321434, “Dihydrobenz[e][1,4]oxazepin-2(3H)-ones, a new anthelmintic chemotype immobilising whipworm and reducing infectivity in vivo” (PLoS Neglected Tropical Diseases, 2017)

System: adult T. muris
Experiment: Ex vivo adult T. muris automated motility assay (primary/secondary screen at 100 μM and dose-response)
Set-up: species or system Trichuris muris
Conditions: for PRIMARY_SCREEN_MINUS_LOG_FOLD_CHANGE_MOVEMENT: primary screen; for PRIMARY_SCREEN_MINUS_LOG_FOLD_CHANGE_MOVEMENT / SECONDARY_SCREEN_MINUS_LOG_FOLD_CHANGE_MOVEMENT: adult T. muris motility; for SECONDARY_SCREEN_MINUS_LOG_FOLD_CHANGE_MOVEMENT: secondary screen
Protocol: Severe combined immune deficiency (SCID) mice were bred in the Biological Services Facility at the University of Manchester. Both male and female SCID mice were infected with a high dose of 200 infective embryonated T. muris eggs via oral gavage. At day 35 post-infection, groups of 5 mice were killed and their […] colons removed. Guts were opened longitudinally, washed with pre-warmed Roswell Park Memorial Institute (RPMI) 1640 media supplemented with penicillin (500U/ml) and streptomycin (500μg/ml) and adult T. muris worms gently removed using fine forceps. Worms removed from SCID mice were maintained in RPMI-1640 media supplemented with penicillin (500U/ml) and streptomycin (500μg/ml) at approximately 37°C and studied on the same day. Using fine forceps, individual live worms were placed into 96 well plates containing 75μl of RPMI-1640 medium supplemented with penicillin (500U/ml) and streptomycin (500μg/ml) plus 1% final concentration of DMSO or compound dissolved in DMSO. In the primary screen the test compound concentration was 100μM. Plates were then incubated at 37°C, 5% CO2, and motility was analysed after 24 hours. Worm movement was quantified using an automated motility assay. This system gives an estimate of worm movement in each well by thresholding and quantifying pixel intensity variance over time. An earlier version of this system has been previously described. One adult T. muris worm was used per well, with one well per compound in each replicate of the primary screen. The primary screen was repeated each week for a period of four weeks giving four independent biological replicates from separate parasite batches for each compound. Dose-response curves were calculated with the four factor log-logistic model using the R package drc. The primary screen was carried out at 100μM final concentration. Assay plates were assigned unique IDs and statistical analysis was performed without knowledge of compound identities using R scripts. Once hit wells were identified, well/plate positions were mapped to compound identities using DataWarrior [28]. […] Compounds identified as having encouraging activity from the DMSO solution samples were then resynthesized for confirmatory testing.

[1] = combined primary and secondary screen minus log fold change in movement, adult T. muris, 100 μM

Row | SMILES | COMBINED_SCREEN_ACTIVITY [1] | PRIMARY_SCREEN_MINUS_LOG_FOLD_CHANGE_MOVEMENT (100 μM) | SECONDARY_SCREEN_MINUS_LOG_FOLD_CHANGE_MOVEMENT (100 μM) | COMBINED_SCREEN_ACTIVITY (adult T. muris motility screen at 100 μM, combines primary and secondary screen minus log fold change in movement (mean where both are given))
1 | O=C1COCc2ccc(Br)cc2N1CCc1ccccc1 [Compound 80] | 10.5493 | 10.5493 | – | –
2 | COc1cccc(CN2C(=O)COCc3ccc(-c4ccccc4)cc32)c1 [Compound 101] | -0.6789 | -0.6789 | – | –
3 | O=C1COCc2cc(-c3cccnc3)ccc2N1Cc1ccccc1Cl [Compound 106] | 6.595 | 6.595 | – | –
4 | O=C1COCc2ccc(-c3cc(F)cc(F)c3)cc2N1CC1CC1 [Compound 48] | 1.875 | 1.875 | – | –
5 | COc1ccccc1-c1ccc2c(c1)COCC(=O)N2Cc1ccc(C)cc1 [Compound 120] | -1.664 | -1.664 | – | –
6 | CCCN1C(=O)COCc2cc(Br)ccc21 [Compound 16] | -2.129 | -2.129 | – | –
7 | COc1cccc(CN2C(=O)COCc3cc(-c4cnn(C)c4)ccc32)c1 [Compound 105] | -0.2739 | -0.55 | 0.002295 | –
8 | COc1cc(F)ccc1-c1ccc2c(c1)COCC(=O)N2Cc1ccccc1 [Compound 128] | 3.2501 | 3.2501 | – | –
9 | COc1ccccc1-c1ccc2c(c1)N(CCN1CCOCC1)C(=O)COC2 [Compound 136] | -0.8162 | -0.8162 | – | –
10 | O=C1COCc2ccc(-c3cccnc3)cc2N1CCc1ccccc1 [Compound 74] | -0.776 | -0.776 | – | –
11 | Cn1cc(-c2ccc3c(c2)N(Cc2ccccc2Cl)C(=O)COC3)cn1 [Compound 114] | 1.278 | 1.278 | – | –
12 | Cn1cc(-c2ccc3c(c2)COCC(=O)N3Cc2ccccc2Cl)cn1 [Compound 113] | 0.5472 | 0.5472 | – | –
13 | CC(=O)Nc1cccc(-c2ccc3c(c2)N(CC2CCCCC2)C(=O)COC3)c1 [Compound 149] | 6.083 | 10.5493 | 1.617 | –
14 | O=C(O)c1cccc(-c2ccc3c(c2)N(CC2CC2)C(=O)COC3)c1 [Compound 62] | -1.551 | -1.551 | – | –
15 | COc1cc(F)ccc1-c1ccc2c(c1)N(Cc1cc(F)cc(F)c1)C(=O)COC2 [Compound 181] | – | -0.2325 | – | -0.2325
16 | O=C1COCc2ccc(Br)cc2N1Cc1ccc(C(F)(F)F)cc1 [Compound 160] | 8.379 | 8.379 | – | –
17 | CN1C(=O)COCc2c(-c3ccc(Cl)cc3)cccc21 [Compound 22] | -0.8438 | -0.8438 | – | –
18 | COc1ccc(F)cc1-c1ccc2c(c1)COCC(=O)N2CCN1CCOCC1 [Compound 163] | -0.1485 | -0.1485 | – | –
19 | COCCN1C(=O)COCc2ccc(-c3ccc(Cl)cc3)cc21 [Compound 53] | -0.5764 | -0.5764 | – | –
20 | COc1ccc(-c2ccc3c(c2)N(CCN2CCOCC2)C(=O)COC3)c(C)c1 [Compound 157] | -1.37 | -1.37 | – | –
21 | O=C1COCc2ccc(Br)cc2N1CC1CCCCC1 [Compound 65] | -1.362 | -1.362 | – | –
22 | COc1cccc(CN2C(=O)COCc3cc(Br)ccc32)c1 [Compound 103] | 7.462 | 7.462 | – | –
23 | Cn1cc(-c2ccc3c(c2)N(Cc2ccc(C(F)(F)F)cc2)C(=O)COC3)cn1 [Compound 166] | 11.5841 | 10.5493 | 12.6188 | –
24 | COCc1cccc(-c2ccc3c(c2)N(CCN2CCOCC2)C(=O)COC3)c1 [Compound 158] | -1.5946 | -1.5946 | – | –
25 | COCCN1C(=O)COCc2ccc(-c3cccc(COC)c3)cc21 [Compound 71] | -1.553 | -1.553 | – | –
